Earlier results in patent US11904002B2, “Construction and methods of use of a therapeutic cancer vaccine library comprising fusion-specific vaccines” (BostonGene Corporation, priority 2016, dated 2024).

Test system: CD8+ T-cells
Details: CD8+ T-cells generated as a consequence of anti-PD1 treatment; murine MHC H-2Kb

Row | Sequence | recognition by CD8+ T-cells
1 | ITYTWTRL | targets of CD8+ T-cells
2 | VGFNFRTL | targets of CD8+ T-cells
